Test results published in patent US8017611B2, “Pyridine and pyrazine derivatives -083” (AstraZeneca AB, priority 2007, dated 2011).
Marks after values point to notes of the source that are not given here.

target: T1, recombinant Axl tyrosine kinase (Homo sapiens, UniProt P30530); assay: In vitro Axl kinase assay (AlphaScreen), Test (a); assay type: biochemical; details: 1 μM; mean calculated from a larger number of replicates than the first value
T1 construct: encompassing amino acids 473 to 894 of Axl; GST (N); made in house; host or cells: SF126 insect cells
T1 sequence (P30530 473-894): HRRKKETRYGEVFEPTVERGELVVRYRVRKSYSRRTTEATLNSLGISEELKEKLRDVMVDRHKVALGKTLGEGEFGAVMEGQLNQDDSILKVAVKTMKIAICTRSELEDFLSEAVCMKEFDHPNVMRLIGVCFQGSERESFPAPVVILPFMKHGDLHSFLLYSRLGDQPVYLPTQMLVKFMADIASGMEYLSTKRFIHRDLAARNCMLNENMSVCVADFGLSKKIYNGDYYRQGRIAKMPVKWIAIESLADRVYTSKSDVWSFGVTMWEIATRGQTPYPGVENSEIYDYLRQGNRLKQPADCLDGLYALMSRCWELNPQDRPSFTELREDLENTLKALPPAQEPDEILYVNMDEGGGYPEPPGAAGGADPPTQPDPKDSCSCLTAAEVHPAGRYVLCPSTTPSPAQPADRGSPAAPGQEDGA

SMILES	% Axl tyrosine kinase inhibition at 1 μM concentration (second value, †)
Nc1ncc(-c2ccc(CN3CCOCC3)cc2)cc1-c1nc2ccncc2o1 [Example 11A.1]	99.4%

same assay, conditions: 1 μM; mean calculated from a larger number of replicates than the first value; read-out: % Axl tyrosine kinase inhibition at 1 μM concentration (second value, †)

SMILES	inhibition at 1 µM
CN1CCC(n2cc(-c3cnc(N)c(-c4nc5ccccc5o4)c3)cn2)CC1 [Example 3, 3-(1,3-Benzoxazol-2-yl)-5-[1-(1-methyl-4-piperidyl)pyrazol-4-yl]pyridin-2-amine]	99.8%

same assay, conditions: Test (a); read-out: IC50 versus Axl tyrosine kinase

SMILES	IC50
COc1cccc2nc(-c3cc(-c4cn(C5CCN(C)CC5)nc4CO)cnc3N)oc12 [Example 41.42]	~0.2 nM

same assay, conditions: test compound at 1 μM; first value quoted

SMILES	% Axl tyrosine kinase inhibition at 1 μM concentration
CC(=O)NCCC(=O)N1CCC(n2cc(-c3cnc(N)c(-c4nc5ncccc5o4)c3)cn2)CC1 [Example 59.4]	98.9%
Cc1nn(C2CCN(C)CC2)c(C)c1-c1cnc(N)c(-c2nc3ccccc3o2)c1 [Example 41.17]	84.8%
CC(=O)NCCC(=O)N1CCC(n2cc(-c3cnc(N)c(-c4nc5cccnc5o4)c3)cn2)CC1 [Example 59.11]	99.0%
Nc1ncc(-c2ccc(C(=O)N[C@H]3CN4CCC3CC4)cc2)cc1-c1nc2cccnc2o1 [Example 45A.35]	98.4%
CCOc1nn(C2CCN(C)CC2)cc1-c1cnc(N)c(-c2nc3ccccc3o2)c1 [Example 41.13]	100.0%
NC(=O)c1nn(C2CCNCC2)cc1-c1cnc(N)c(-c2nc3ccccc3o2)c1 [Example 62.5]	99.5%
CN(C)C(=O)CN1CCN(C(=O)c2ccc(-c3cnc(N)c(-c4nc5ncccc5o4)c3)cc2)CC1 [Example 45B.6]	95.9%
CC(=O)NCC(=O)N1CCC(n2cc(-c3cnc(N)c(-c4nc5ncccc5o4)c3)cn2)CC1 [Example 59.3]	98.9%
COc1cc(-c2cnc(N)c(-c3nc4ncccc4o3)c2)ccc1OCCCN1CCN(C)CC1 [Example 43C.14]	99.3%
CC(O)c1nn(C2CCN(C)CC2)cc1-c1cnc(N)c(-c2nc3c(C#N)cccc3o2)c1 (centres unmarked) [Example 41.41]	99.7%
CN1CCC(n2cc(-c3cnc(N)c(-c4nc5cc(C(F)(F)F)ccc5o4)c3)cn2)CC1 [Example 7.11]	98.1%
NCc1ccc(-c2cnc(N)c(-c3nc4cnccc4o3)c2)cc1 [Example 8A.23]	99.1%
CN(C)CCNC(=O)c1cccc(-c2cnc(N)c(-c3nc4ncccc4o3)c2)c1 [Example 10A.18]	84.7%
Nc1ncc(-c2ccc(OC3CCNC3)cc2)cc1-c1nc2ncccc2o1 (centres unmarked) [Example 43B.27]	98.2%
COCCOCC(=O)N1CCC(n2cc(-c3cnc(N)c(-c4nc5ncccc5o4)c3)cn2)CC1 [Example 59.5]	99.7%
NCCOc1ccc(-c2cnc(N)c(-c3nc4ncccc4o3)c2)cc1 [Example 43B.25]	97.5%
COc1cc(-c2cnc(N)c(-c3nc4ncccc4o3)c2)ccc1OCCN1CCNCC1 [Example 43C.25]	99.5%
Nc1ncc(-c2ccc(C(=O)N3CCN(Cc4ccccn4)CC3)cc2)cc1-c1nc2ncccc2o1 [Example 45B.4]	99.6%
NCCCCOc1ccc(-c2cnc(N)c(-c3nc4ncccc4o3)c2)cc1 [Example 43B.34]	95.7%
CN(C)C1CCCN(C(=O)c2ccc(-c3cnc(N)c(-c4nc5cccnc5o4)c3)cc2)C1 (centres unmarked) [Example 45A.20]	98.9%
CN1CCC(n2cc(-c3cnc(N)c(-c4nc5ccccc5o4)c3)cn2)C1 (centres unmarked) [Example 41.9]	100.0%

SMILES	% Axl tyrosine kinase inhibition at 1 μM concentration
COc1cccc2nc(-c3cc(-c4cn(C5CCN(C)CC5)nc4CO)cnc3N)oc12 [Example 41.42]	100.0%
Nc1ncc(-c2ccc(C(=O)NCCCN3CCOCC3)cc2)cc1-c1nc2cccnc2o1 [Example 45A.57]	96.9%
Nc1ncc(-c2ccc(C(=O)NCCN3CCOCC3)cc2)cc1-c1nc2ncccc2o1 [Example 45B.3]	97.7%
Nc1ncc(-c2ccc(OCCN3CCCCC3)cc2)cc1-c1nc2ncccc2o1 [Example 43B.8]	19.0^††† %
CN(C)C(=O)CN1CCC(n2cc(-c3cnc(N)c(-c4nc5ncccc5o4)c3)cn2)CC1 [Example 53.1]	99.7%
CS(=O)(=O)Oc1cccc(-c2cnc(N)c(-c3nc4ccccc4o3)c2)c1 [Example 2.52]	81.0%
CN1C2CCC1CC(Oc1ccc(-c3cnc(N)c(-c4nc5ncccc5o4)c3)cc1)C2 (centres unmarked) [Example 43B.21]	99.6%
Nc1ncc(-c2ccnc3ccccc23)cc1-c1nc2ccccc2o1 [Example 2.25]	60.3%
CN1CCC(CNC(=O)c2ccc(-c3cnc(N)c(-c4nc5cccnc5o4)c3)cc2)C1 (centres unmarked) [Example 45A.27]	97.9%
CN1CCC(n2cc(-c3cnc(N)c(-c4nc5ccc(Cl)cc5o4)c3)cn2)CC1 [Example 7.7]	99.0%
CN1CCC(n2cc(-c3cnc(N)c(-c4nc5c(C#N)cccc5o4)c3)cn2)CC1 [Example 41.25]	99.8%
Nc1ncc(-c2ccc(C(=O)NCCn3ccnc3)cc2)cc1-c1nc2cccnc2o1 [Example 45A.7]	97.7%
Nc1ncc(-c2ccc(C(=O)NC[C@H]3CCCNC3)cc2)cc1-c1nc2cccnc2o1 [Example 45A.93]	99.3%
CN1CC(n2cc(-c3cnc(N)c(-c4nc5ccccc5o4)c3)cn2)C1 [Example 41.8]	99.7%
Nc1ncc(-c2ccc(CN3CCOCC3)cc2)cc1-c1nc2ccncc2o1 [Example 11A.1]	99.6%
NCC[C@H]1CCCN(C(=O)c2ccc(-c3cnc(N)c(-c4nc5cccnc5o4)c3)cc2)C1 [Example 45A.92]	99.7%
Nc1ncc(-c2ccc(C(=O)N3CCC4(CCNCC4)CC3)cc2)cc1-c1nc2cccnc2o1 [Example 45A.100]	95.3%
CS(=O)(=O)Nc1ccc(-c2cnc(N)c(-c3nc4ccccc4o3)c2)cc1 [Example 2.27]	98.0%
COCCC(=O)N1CCC(n2cc(-c3cnc(N)c(-c4nc5ncccc5o4)c3)cn2)CC1 [Example 59.1]	99.3%
Nc1ncc(-c2ccc(OCCCN3CCNCC3)cc2)cc1-c1nc2ncccc2o1 [Example 43B.38]	8.1^†††† %

same assay, conditions: test compound at 1 μM; first value quoted; read-out: % Axl tyrosine kinase inhibition at 1 μM concentration

SMILES	inhibition at 1 µM
Cc1nn(C2CCNCC2)cc1-c1cnc(N)c(-c2nc3ccccc3o2)n1 [Example 20.20, 3-(1,3-benzoxazol-2-yl)-5-[3-methyl-1-(4-piperidyl)pyrazol-4-yl]pyrazin-2-amine]	99.9%
CNC(=O)[C@@H]1C[C@@H](n2cc(-c3cnc(N)c(-c4nc5ccccc5o4)c3)cn2)CN1C [Example 39, (2S,4R)-4-[4-[6-amino-5-(1,3-benzoxazol-2-yl)-3-pyridyl]pyrazol-1-yl]-N,1-dimethyl-pyrrolidine-2-carboxamide]	99.9%
Nc1ncc(-c2cnn(CCN3CCOCC3)c2)cc1-c1nc2ccccc2o1 [Example 26, 3-(1,3-benzoxazol-2-yl)-5-[1-(2-morpholinoethyl)pyrazol-4-yl]pyridin-2-amine]	99.3%
CC(C)N1CCC(n2cc(-c3cnc(N)c(-c4nc5ccccc5o4)c3)cn2)CC1 [Example 5, 3-(1,3-Benzoxazol-2-yl)-5-[1-(1-isopropyl-4-piperidyl)pyrazol-4-yl]pyridin-2-amine]	100%
CN(C)CCNC(=O)c1ccc(-c2cnc(N)c(-c3nc4ncccc4o3)c2)cc1 [Example 10A.15, 4-(6-amino-5-oxazolo[4,5-b]pyridin-2-yl-3-pyridyl)-N-(2-dimethylaminoethyl)benzamide]	98.4%
Cc1nn(C2CCNCC2)cc1-c1cnc(N)c(-c2nc3c(F)cccc3o2)c1 [Example 25A, 3-(4-fluoro-1,3-benzoxazol-2-yl)-5-[3-methyl-1-(4-piperidyl)pyrazol-4-yl]pyridin-2-amine]	100%
COCc1nn(C2CCN(CCO)CC2)cc1-c1cnc(N)c(-c2nc3ccccc3o2)c1 [Example 72, 2-[4-[4-[6-amino-5-(1,3-benzoxazol-2-yl)-3-pyridyl]-3-(methoxymethyl)pyrazol-1-yl]-1-piperidyl]ethanol]	100%
CN1CCC(n2cc(-c3cnc(N)c(-c4nc5ccccc5o4)c3)cn2)CC1 [Example 3, 3-(1,3-Benzoxazol-2-yl)-5-[1-(1-methyl-4-piperidyl)pyrazol-4-yl]pyridin-2-amine]	100%
CN(C)CCNC(=O)c1ccc(-c2cnc(N)c(-c3nc4cccnc4o3)c2)cc1 [Example 44, 4-(6-amino-5-(oxazolo[5,4-b]pyridin-2-yl)pyridin-3-yl)-N-(2-(dimethylamino)ethyl)benzamide]	99.6%
Nc1ncc(-c2cnn(C3CCNCC3)c2)cc1-c1nc2cnccc2o1 [Example 8, 3-Oxazolo[4,5-c]pyridin-2-yl-5-[1-(4-piperidyl)pyrazol-4-yl]pyridin-2-amine]	99.2%

same assay, conditions: test compound at 30 μM

SMILES	% of Axl tyrosine kinase activity inhibited at a concentration of 30 μM
Nc1ncc(-c2ccc(OCCN3CCCCC3)cc2)cc1-c1nc2ncccc2o1 [Example 43B.8]	^†††the compound disclosed in Example 43B.8 inhibited 98% of Axl tyrosine kinase activity at a concentration of 30 μM.
Nc1ncc(-c2ccc(OCCCN3CCNCC3)cc2)cc1-c1nc2ncccc2o1 [Example 43B.38]	^††††the compound disclosed in Example 43B.38 inhibited 95.3% of Axl tyrosine kinase activity at a concentration of 30 μM.
